{"source": "patent US8952024B2", "about": "“Herbicidal pyrimidone derivatives” (E I du Pont de Nemours and Company, priority 2009, dated 2015)", "assay_type_in_all_cases": "in vivo", "key": {"[1]": {"tested_on": "morningglory (Ipomoea coccinea)", "experiment": "Test B pre-/postemergence plant response", "settings": "Postemergence", "in_short": "(§1)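 Visual ratings on a 0–100 scale (100 = complete control) were made versus untreated controls 13–15 days after treatment in a greenhouse. Compounds in surfactant-containing non-phytotoxic solvent were applied preemergence to seeds in loam–sand blend or postemergence to 1- to 4-leaf plants (2–18 cm).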"}, "[2]": {"tested_on": "ragweed (common ragweed, Ambrosia elatior)", "experiment": "Test B pre-/postemergence plant response", "settings": "Postemergence", "in_short": "as §1"}, "[3]": {"tested_on": "Italian ryegrass (Lolium multiflorum)", "experiment": "Test B pre-/postemergence plant response", "settings": "Postemergence", "in_short": "as §1"}, "[4]": {"tested_on": "blackgrass (Alopecurus myosuroides)", "experiment": "Test B pre-/postemergence plant response", "settings": "for Blackgrass plant response rating (0 to 100 scale): 62 g ai/ha, postemergence, 0 is no effect, 100 is complete control; for Plant response rating, Blackgrass: Postemergence", "in_short": "as §1"}, "[5]": {"tested_on": "bermudagrass (Cynodon dactylon)", "experiment": "Test B pre-/postemergence plant response", "settings": "for Bermudagrass plant response rating (0 to 100 scale): 62 g ai/ha, postemergence, 0 is no effect, 100 is complete control; for Plant response rating, Bermudagrass: Postemergence", "in_short": "as §1"}, "[6]": {"tested_on": "cocklebur (Xanthium strumarium)", "experiment": "Test B pre-/postemergence plant response", "settings": "Postemergence", "in_short": "as §1"}, "[7]": {"tested_on": "Surinam grass (Brachiaria decumbens)", "experiment": "Test B pre-/postemergence plant response", "settings": "Postemergence", "in_short": "as §1"}, "soybean (Glycine max)": {"tested_on": "soybean (Glycine max)", "experiment": "Test B pre-/postemergence plant response", "settings": "Postemergence", "in_short": "as §1"}, "corn (Zea mays)": {"tested_on": "corn (Zea mays)", "experiment": "Test B pre-/postemergence plant response", "settings": "Postemergence", "in_short": "as §1"}, "[8]": {"tested_on": "ducksalad (Heteranthera limosa)", "experiment": "Test B flooded paddy test", "settings": "for Plant response rating, Ducksalad: Flood (flooded paddy test), 13 to 15 days; for Ducksalad plant response rating: Flood, 31 g ai/ha, scale 0 to 100 (0 no effect, 100 complete control)", "in_short": "(§2)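 2-leaf seedlings; pots flooded 3 cm over soil at treatment; cpd dosed into floodwater, depth kept constant. Greenhouse 13–15 d. Visual rating vs untreated controls, 0 = no effect, 100 = complete control.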"}, "[9]": {"tested_on": "barnyardgrass (Echinochloa crus-galli)", "experiment": "Test B flooded paddy test", "settings": "for Plant response rating, Barnyardgrass: Flood (flooded paddy test), 13 to 15 days; for Barnyardgrass plant response rating: Flood, 31 g ai/ha, scale 0 to 100 (0 no effect, 100 complete control)", "in_short": "as §2"}, "[10]": {"tested_on": "umbrella sedge (Cyperus difformis)", "experiment": "Test B flooded paddy test", "settings": "for Plant response rating, Sedge, Umbrella: Flood (flooded paddy test), 13 to 15 days; for Sedge, Umbrella plant response rating: Flood, 31 g ai/ha, scale 0 to 100 (0 no effect, 100 complete control)", "in_short": "as §2"}, "rice (Oryza sativa)": {"tested_on": "rice (Oryza sativa)", "experiment": "Test B flooded paddy test", "settings": "for Plant response rating, Rice: Flood (flooded paddy test), 13 to 15 days; for Rice plant response rating: Flood, 31 g ai/ha, scale 0 to 100 (0 no effect, 100 complete control)", "in_short": "as §2"}, "[11]": {"settings": "31 g ai/ha, 0 to 100 scale (0 no effect, 100 complete control)"}, "[12]": {"settings": "125 g ai/ha, scale 0 to 100 (0 no effect, 100 complete control)"}, "[13]": {"settings": "250 g ai/ha, scale 0 to 100 (0 no effect, 100 complete control), 13 to 15 days"}, "[14]": {"settings": "125 g ai/ha, scale 0 to 100, 0 is no effect, 100 is complete control"}, "[15]": {"settings": "250 g ai/ha, flooded paddy test, visual rating on 0 to 100 scale (0 no effect, 100 complete control) after 13 to 15 days"}, "[16]": {"settings": "62 g ai/ha, scale of 0 to 100 where 0 is no effect and 100 is complete control"}}}
{"smiles": "Cc1ccc(F)cc1-n1c(-c2cccc(Cl)c2)ncc(C(=O)C2=C(O)CCCC2=O)c1=O", "note": "[Compound 157]", "values": [{"measurement": "Plant response rating, Morningglory", "setting": "[1]; [11]", "result": 20}, {"measurement": "Plant response rating, Morningglory", "setting": "[1]; [12]", "result": 95}, {"measurement": "Plant response rating, Morningglory", "setting": "[1]; [13]", "result": 100}, {"measurement": "Plant response rating, Ragweed", "setting": "[2]; [11]", "result": 90}, {"measurement": "Plant response rating, Ragweed", "setting": "[2]; [12]", "result": 100}, {"measurement": "Plant response rating, Ragweed", "setting": "[2]; [13]", "result": 100}, {"measurement": "Plant response rating, Ryegrass, Italian", "setting": "[3]; [11]", "result": 10}, {"measurement": "Plant response rating, Ryegrass, Italian", "setting": "[3]; [12]", "result": 30}, {"measurement": "Plant response rating, Ryegrass, Italian", "setting": "[3]; [13]", "result": 35}, {"measurement": "Blackgrass plant response rating (0 to 100 scale)", "setting": "[4]; 13 to 15 days", "result": 5}, {"measurement": "Plant response rating, Blackgrass", "setting": "[4]; [11]", "result": 0}, {"measurement": "Plant response rating, Blackgrass", "setting": "[4]; [12]", "result": 10}, {"measurement": "Plant response rating, Blackgrass", "setting": "[4]; [13]", "result": 40}, {"measurement": "Bermudagrass plant response rating (0 to 100 scale)", "setting": "[5]; 13 to 15 days", "result": 90}, {"measurement": "Plant response rating, Bermudagrass", "setting": "[5]; [11]", "result": 75}, {"measurement": "Plant response rating, Bermudagrass", "setting": "[5]; [12]", "result": 100}, {"measurement": "Plant response rating, Bermudagrass", "setting": "[5]; [13]", "result": 100}, {"measurement": "Plant response rating, Cocklebur", "setting": "[6]; [11]", "result": 100}, {"measurement": "Plant response rating, Cocklebur", "setting": "[6]; [12]", "result": 100}, {"measurement": "Plant response rating, Cocklebur", "setting": "[6]; [13]", "result": 100}, {"measurement": "Plant response rating, Surinam Grass", "setting": "[7]; [11]", "result": 75}, {"measurement": "Plant response rating, Surinam Grass", "setting": "[7]; [12]", "result": 98}, {"measurement": "Plant response rating, Surinam Grass", "setting": "[7]; [13]", "result": 100}, {"measurement": "Plant response rating, Soybean", "setting": "soybean (Glycine max); [11]", "result": 95}, {"measurement": "Plant response rating, Soybean", "setting": "soybean (Glycine max); [12]", "result": 100}, {"measurement": "Plant response rating, Soybean", "setting": "soybean (Glycine max); [13]", "result": 100}, {"measurement": "Plant response rating, Corn", "setting": "corn (Zea mays); [11]", "result": 70}, {"measurement": "Plant response rating, Corn", "setting": "corn (Zea mays); [12]", "result": 95}, {"measurement": "Plant response rating, Corn", "setting": "corn (Zea mays); [13]", "result": 100}, {"measurement": "Plant response rating, Ducksalad", "setting": "[8]; [14]", "result": 70}, {"measurement": "Ducksalad plant response rating", "setting": "[8]", "result": 50}, {"measurement": "Plant response rating, Barnyardgrass", "setting": "[9]; [14]", "result": 0}, {"measurement": "Barnyardgrass plant response rating", "setting": "[9]", "result": 0}, {"measurement": "Plant response rating, Sedge, Umbrella", "setting": "[10]; [14]", "result": 75}, {"measurement": "Sedge, Umbrella plant response rating", "setting": "[10]", "result": 40}, {"measurement": "Plant response rating, Rice", "setting": "rice (Oryza sativa); [14]", "result": 0}, {"measurement": "Rice plant response rating", "setting": "rice (Oryza sativa)", "result": 0}]}
{"smiles": "O=C1CCCC(O)=C1C(=O)c1cnc(-c2ccccc2)n(C2CCSCC2)c1=O", "note": "[Compound 164]", "values": [{"measurement": "Plant response rating, Morningglory", "setting": "[1]; [11]", "result": 90}, {"measurement": "Plant response rating, Morningglory", "setting": "[1]; [12]", "result": 98}, {"measurement": "Plant response rating, Morningglory", "setting": "[1]; [13]", "result": 100}, {"measurement": "Plant response rating, Ragweed", "setting": "[2]; [11]", "result": 85}, {"measurement": "Plant response rating, Ragweed", "setting": "[2]; [12]", "result": 98}, {"measurement": "Plant response rating, Ragweed", "setting": "[2]; [13]", "result": 100}, {"measurement": "Plant response rating, Ryegrass, Italian", "setting": "[3]; [11]", "result": 5}, {"measurement": "Plant response rating, Ryegrass, Italian", "setting": "[3]; [12]", "result": 20}, {"measurement": "Plant response rating, Ryegrass, Italian", "setting": "[3]; [13]", "result": 40}, {"measurement": "Blackgrass plant response rating (0 to 100 scale)", "setting": "[4]; 13 to 15 days", "result": 5}, {"measurement": "Plant response rating, Blackgrass", "setting": "[4]; [11]", "result": 5}, {"measurement": "Plant response rating, Blackgrass", "setting": "[4]; [12]", "result": 10}, {"measurement": "Plant response rating, Blackgrass", "setting": "[4]; [13]", "result": 35}, {"measurement": "Bermudagrass plant response rating (0 to 100 scale)", "setting": "[5]; 13 to 15 days", "result": 98}, {"measurement": "Plant response rating, Bermudagrass", "setting": "[5]; [11]", "result": 70}, {"measurement": "Plant response rating, Bermudagrass", "setting": "[5]; [12]", "result": 98}, {"measurement": "Plant response rating, Bermudagrass", "setting": "[5]; [13]", "result": 100}, {"measurement": "Plant response rating, Cocklebur", "setting": "[6]; [11]", "result": 98}, {"measurement": "Plant response rating, Cocklebur", "setting": "[6]; [12]", "result": 100}, {"measurement": "Plant response rating, Cocklebur", "setting": "[6]; [13]", "result": 100}, {"measurement": "Plant response rating, Surinam Grass", "setting": "[7]; [11]", "result": 60}, {"measurement": "Plant response rating, Surinam Grass", "setting": "[7]; [12]", "result": 95}, {"measurement": "Plant response rating, Surinam Grass", "setting": "[7]; [13]", "result": 98}, {"measurement": "Plant response rating, Soybean", "setting": "soybean (Glycine max); [11]", "result": 80}, {"measurement": "Plant response rating, Soybean", "setting": "soybean (Glycine max); [12]", "result": 100}, {"measurement": "Plant response rating, Soybean", "setting": "soybean (Glycine max); [13]", "result": 100}, {"measurement": "Plant response rating, Corn", "setting": "corn (Zea mays); [11]", "result": 15}, {"measurement": "Plant response rating, Corn", "setting": "corn (Zea mays); [12]", "result": 45}, {"measurement": "Plant response rating, Corn", "setting": "corn (Zea mays); [13]", "result": 70}, {"measurement": "Plant response rating, Flood, Ducksalad", "setting": "[8]; [15]", "result": 85}, {"measurement": "Plant response rating, Ducksalad", "setting": "[8]; [16]", "result": 0}, {"measurement": "Plant response rating, Ducksalad", "setting": "[8]; [14]", "result": 0}, {"measurement": "Ducksalad plant response rating", "setting": "[8]", "result": 0}, {"measurement": "Plant response rating, Flood, Barnyardgrass", "setting": "[9]; [15]", "result": 0}, {"measurement": "Plant response rating, Barnyardgrass", "setting": "[9]; [16]", "result": 0}, {"measurement": "Plant response rating, Barnyardgrass", "setting": "[9]; [14]", "result": 0}, {"measurement": "Barnyardgrass plant response rating", "setting": "[9]", "result": 0}, {"measurement": "Plant response rating, Flood, Sedge, Umbrella", "setting": "[10]; [15]", "result": 90}, {"measurement": "Plant response rating, Sedge, Umbrella", "setting": "[10]; [16]", "result": 0}, {"measurement": "Plant response rating, Sedge, Umbrella", "setting": "[10]; [14]", "result": 0}, {"measurement": "Sedge, Umbrella plant response rating", "setting": "[10]", "result": 0}, {"measurement": "Plant response rating, Flood, Rice", "setting": "rice (Oryza sativa); [15]", "result": 35}, {"measurement": "Plant response rating, Rice", "setting": "rice (Oryza sativa); [16]", "result": 0}, {"measurement": "Plant response rating, Rice", "setting": "rice (Oryza sativa); [14]", "result": 20}, {"measurement": "Rice plant response rating", "setting": "rice (Oryza sativa)", "result": 0}]}
